These results are taken from patent US10064942B2, “Copper-cysteamine and methods of use” (THE BOARD OF REGENTS, THE UNIVERSITY OF TEXAS SYSTEM, priority 2013, dated 2018).

In one data set the test system is MCF-7 tumors. It counts as in vivo, nude mice. The protocol: A suspension of 10×10^6MCF-7 cancer cell lines was injected subcutaneously into flanks on both shoulder and leg area of nude mice. Mice were monitored on a daily basis for the growth of tumors (FIG. 24). […] Saline (10 μL, as control, left shoulder) and Cu-Cy with concentration about 0.8 mg/mL (10 μL-right shoulder, 15 μL-left leg and 20 μL-right leg) were injected intra-tumorally. At one minute post-injection, mice were anesthetized with 2% (v/v) isofluorane, and tumors were irradiated with an X-ray dose of 5 Gy. Without X-ray treatment (top row), the tumors grew as time progressed, and there was no apparent size difference among Cu-Cy dosages of 10, 15, and 20 μl. Meanwhile, the tumors with no Cu-Cy (saline only) treatment were larger than the tumors with Cu-Cy treatment. […] The animals were sacrificed via CO2 inhalation and cervical […] on the day 13 of tumor growth. Absent X-ray radiation (top row), the tumors without Cu-Cy treatment grew to a somewhat larger volume than those treated by Cu-Cy, which indicates the minor toxicity from the Cu-Cy particles themselves. […] This is seen by comparing the two tumors treated with saline with and without X-ray radiation. For the treatment with 20 μL of Cu-Cy particles at 5 Gy dose, the tumor size is reduced to about 3 mm in diameter while the untreated tumor size is about 10 mm in diameter.

For data set [1], the system named is human prostate cancer (PC3) cells. The experiment in a line: X-ray (2 Gy) destruction of PC3 cells, fluorescence imaging. It counts as cell-based. The note with it: Cu-Cy crystals plus X-ray 2 Gy. From the text:
FIGS. 14A-14D depict the comparison of X-ray (2 Gy) destruction on human prostate cancer (PC3) cells without (top row, FIG. 14A and FIG. 14B) and with (bottom row, FIG. 14C and FIG. 14D) Cu-Cy crystals. […] The scale bar is always 100 μm.
As such, the combination of the disclosed Cu-Cy material and a source of radiation provides an effective method for inducing cell death.

A further data set relates to MCF-7 cells. The experiment in a line: MTT cytotoxicity of Cu-Cy crystals in MCF-7 cells. It counts as cell-based, human. The note with it: 24 h incubation. The method, then: The toxicity of Cu-Cy crystals in MCF-7 cells was evaluated using an MTT (3-(4,5-dimethylthiazol-2-yl)-2,5-diphenyltetrazoliumbromide) assay. 2 mg of the Cu-Cy crystals were well ground and sonicated before being dissolved in 1 mL of DI water (control) for the measurement.
Cytotoxicity was evaluated using the MTT assay. Approximately 2,000 cells/well MCF-7 cells were seeded into 96-well plates and allowed to grow for 48 hours in an incubator (Sanyo, Japan, 5% CO2, 37° C., humidified atmosphere). On the day of the experiment, after removing the culture medium, different volumes of media containing Cu-Cy particles were added to their respective wells and cytotoxicity was evaluated after 24 h of cell incubation

Data set [2] relates to human breast cancer (MCF-7) cells. The experiment in a line: X-ray destruction of MCF-7 cells, calcein/EthD-1 fluorescence imaging. Type of data set: cell-based. From the text: FIGS. 13A-13D depict the comparison of X-ray (2 Gy) destruction on human breast cancer (MCF-7) cells without (top row, FIG. 14A and FIG. 14B) and with (bottom row, FIG. 14C and FIG. 14D) Cu-Cy crystals. […] The scale bar is always 100 μm.
As stated herein above, the disclosed Cu-Cy compound also absorbs X-rays and emits a luminescent spectrum. FIG. 13A-13D depicts the MCF-7 cell viabilities by fluorescence images with and without Cu-Cy crystals and with and without X-ray irradiation. As with UV radiation, X-ray irradiation of cells incubated with the disclosed Cu-Cy complex is also an effective method for causing cell death.
FIGS. 14A-D depict fluorescence images of MCF-7 cells before and after 1 Gy X-ray exposure by an OLYMPUS IX71 microscope. Calcein and ethidiumhomodimer 1 (EthD-1) were used as the stains showing cells alive (green) and dead (red) respectively. Each of the images was taken immediately after staining, without further cell incubation.
MCF-7 cells were seeded into two 6-well plates (A and B) at 5,000 cells/well and incubated for 48 h at 37° C. in a humidified atmosphere of 5% v/v CO2 at dark. On the day of the experiment, the culture medium was removed and 5 mL medium containing 0 and 40 μg/ml Cu-Cy particles were added to different wells. […] The cells were viewed under an OLYMPUS IX71 fluorescence microscope.

For data set [3] the test system is unchanged. The experiment in a line: UV light (350 nm) destruction of MCF-7 cells, fluorescence imaging. Type of data set: cell-based. The note with it: MCF-7 cells exposed to Cu-Cy and irradiated with UV light (350 nm). From the text:
FIGS. 12A-12D depict the comparison of UV light (350 nm) destruction on human breast cancer (MCF-7) cells without (top row, FIG. 12A and FIG. 12B) and with (bottom row, FIG. 12C and FIG. 12D) Cu-Cy crystals. […] The scale bar is always 100 μm.
Photo-induced toxicity was then applied to cancer cells.

The subject of data set [4] is human hepatocellular liver cells (HEPT). The experiment in a line: UV light (350 nm) destruction of liver cells, calcein/EthD-1 fluorescence imaging. It counts as cell-based. From the text: FIGS. 11A-11D depict the comparison of UV light (350 nm) destruction on human hepatocellular liver cells (HEPT) without (top row, FIG. 11A and FIG. 11B) and with (bottom row, FIG. 11C and FIG. 11D) Cu-Cy crystals. […] The scale bar is always 100 μm.
FIGS. 11A-11D depict the effectiveness of the Cu-Cy material as causing cell death when irradiated with UV light or X-ray. For example, in FIGS. 11A-11D, the fluorescence images of human hepatocellular liver cells were taken before and after the UV light exposure (350 nm, for 2 minutes, from an OLYMPUS IX71 microscope). Calcein and Ethidium homodimer 1 (EthD-1) were used as the stains showing cell alive (green) and death (red) respectively.
Each of the images was taken right after the staining without further liver cell incubation.

A short description of the next data set: Stability in solution. It counts as physicochemical. The note with it: aqueous solution and other common solvents.

As to “Cu3Cl(SR)2 wherein R is —CH2CH2NH2 [Cu-Cy]”, in the data set with MCF-7 tumors (20 μL Cu-Cy (about 0.8 mg/mL) intra-tumoral, X-ray 5 Gy, day 13), the “tumor size (diameter)” value is “about 3 mm”. For the same substance, in the data set with MCF-7 tumors (mouse, in vivo), the “toxicity of Cu-Cy particles themselves in vivo” value is on record as “slight toxicity in vivo”. In addition, in the data set on MCF-7 tumors (with X-ray radiation 5 Gy, 15 and 20 μL Cu-Cy dosages), the tumor growth entry was “greatly reduced”. In the data set on MCF-7 tumors (without X-ray, Cu-Cy 10, 15, 20 μL), the “tumor size or growth” value is listed as “does not significantly reduce tumor size or growth”. The cell death entry was “Significant cell death” in data set [1]; “little cell death” in data set [2] (Cu-Cy particles alone, no X-ray); “does not result in significant cell death” in data set [4] (Cu-Cy crystals alone, no UV irradiation); “significant cell death” in data set [4] (Cu-Cy crystals plus UV light 350 nm for 2 minutes). Further, the cellular viability entry in the data set with MCF-7 cells (Cu-Cy 0.1 μg/ml) was “about 95%”; in the data set on MCF-7 cells (Cu-Cy 200 μg/ml), “about 70%”. Further, the cell destruction entry in data set [2] (Cu-Cy coupled with X-ray treatment (1 Gy; 2 Gy elsewhere in the source)) is on record as “significant cell destruction”. Moreover, in data set [3], the cellular death entry is recorded as “significant cellular death”. In “Stability in solution”, the stability result is listed as “stable in aqueous solution”.
